What all share (format): in vivo
Data set [1] has as its system Colorado potato beetle (Leptinotarsa decemlineata) larvae. As to the kind of experiment: CPB sequential feeding assay (priming with dextran sulfate, then dsRNA) on artificial diet. The note with it: Example 11; DS/DS treatment, 50 μg dextran sulfate. How it is done: In one CPB bioassay, target Ld105 dsRNA (SEQ ID NO:1) was tested at one quantity (1 μg) following a short exposure to dextran sulfate only. The bioassay set-up was similar to that described in Example 1, except that the larvae were first fed diet with topically applied dextran sulfate (DS; 50 μg), or water, for two full days before transferring them to fresh diet with topically applied Ld105 dsRNA, dextran sulfate or water only, for the remainder of the assay.

The test system is the same in data set [2]. As to the kind of experiment: Colorado potato beetle (CPB) larvae bioassay on artificial diet, test solution applied topically to the diet. Here is the method: The bioassay was typically performed in an 48-well-plate containing 500 μl of artificial diet per well. Thirty μl of test solution consisting of 5 μl Ld105 (SEQ ID NO 1) dsRNA (starting concentration 10 ng/μl) and 25 μl of dextran sulfate (of varying concentrations in Milli-Q water) was applied topically to the diet and the diet left to dry for about two hours in the laminar flow at room temperature. One 2nd stage CPB larva was placed in each well. Per treatment, 24 insects were tested. The plates were incubated in the insect rearing chamber at 25° C. and ±50% RH, with a photoperiod of 16 hours light/8 hours dark. Mortality was scored over the course of the experiment. The Kaplan-Meier estimator was used to plot the survival curves and the survival curves were compared using the logrank χ^2 test.
In a CPB bioassay (set-up described in Example 1), target Ld105 dsRNA (SEQ ID NO:1) was tested at one quantity (50 ng) in the presence of fucoidan (average Mw±20 kDa; Sigma cat. no. F5631) at different amounts ranging from 50 ng to 50 μg per larva.
In a CPB bioassay (set-up described in Example 1), target Ld105 dsRNA (SEQ ID NO:1) was tested at different amounts ranging from 1 pg to 1 μg in the presence of 50 μg dextran sulfate per larva.
In a CPB bioassay (set-up described in Example 1), target Ld105 dsRNA (SEQ ID NO:1) was tested at one quantity (50 ng) in the presence of heparin (MP Biomedicals cat. no. 194114) at different amounts ranging from 50 ng to 50 μg per larva.
In a CPB bioassay (set-up described in Example 1), target Ld105 dsRNA (SEQ ID NO:1) was tested at one quantity (50 ng per larva) in the presence of 50 μg chondroitin sulfate (Sigma cat. no. C3788) or hyaluronic acid (Sigma cat. no. 53747).
Preparation of the recombinant bacteria is described in the international publication WO 2007/080127 (see pages 55-56).
In one CPB bioassay (set-up described in Example 1), different target dsRNAs (SEQ ID NO:1, 2, 3, 4; Ld105 dsRNA=SEQ ID NO:1, Ld013=SEQ ID NO: 2, Ld009=SEQ ID NO: 3 and Ld248=SEQ ID NO: 4) were tested at one quantity (100 ng) in the presence of dextran sulfate (50 μg).

For data set [3] the test system is unchanged. As to the kind of experiment: Alternative CPB bioassay using treated potato leaf discs. To be noted: Example 10; 50 μg dextran sulfate alone on leaf discs.
Method: An alternative bioassay was used using potato leaf discs rather than artificial diet as food source for CPB. Discs of approximately 0.9 cm in diameter (or 0.64 cm^2) were cut out off leaves of 4- to 6-week-old potato plants using a suitably sized cork borer. Treated leaf discs were prepared by applying 2 μl of a solution comprising 100 ng target Ld105 dsRNA (SEQ ID NO:1) and 50 μg dextran sulfate on the adaxial leaf surface. The leaf discs were allowed to dry and placed individually in 24 wells of a 48-well multiwell plate. A single second-larval stage CPB was placed into each well and the plate covered with a plastic lid. Twenty-four larvae were tested per treatment. […] After 24 hours, the larvae were transferred to fresh, untreated leaf discs and placed in the chamber for a further 24 hours. This was repeated once after which the CPB larvae were transferred on to artificial diet where they were kept until the end of the bioassay.
For data set [4], the system named is nematode Caenorhabditis elegans. In words: C. elegans soaking assay, counting of life stages. The note with it: Example 13. How it is done:
The effects of dextran sulfate on the RNAi-induced phenotypes of a non-insect species, namely, the nematode Caenorhabditis elegans, were tested in a soaking assay. Wild-type worms were chunked from a stock plate and adults were bleached to obtain a well-staged population. The assay was set up in a V-shaped 96-well plate, with each well containing 20 μl of solution comprising 50 ng/μl target rps-14 dsRNA (SEQ ID NO:6), various concentrations of dextran sulfate (0 mg/ml, 0.25 mg/ml, 0.50 mg/ml and 1 mg/ml) and 50 first-larval stage nematodes. Each treatment was performed in triplicate. The plate containing the worms was incubated at 25° C. for overnight soaking After 17 hours, the worms were transferred to 3.5 cm agar-plates seeded with OP50 E. coli and incubated at 20° C. for a further 2 days. After this growing period, the assay was assessed by counting the different life stages for all treatments.

The mark [5] stands for this setting: Example 6, heparin or dextran sulfate alone, no dsRNA.
The mark [6] stands for this setting: 50 ng/μl rps-14 dsRNA, alone or plus 1 mg/ml dextran sulfate, 17 hours soaking, then 2 days growing.

In the case of “dextran sulfate [dextran sulfate (±8 kDa)]”, the toxicity to larvae result is “Very little or no toxicity” in data set [1]; “Very little or no toxicity” in data set [2] (Example 1, dextran sulfate (±8 kDa) alone, 50 ng to 50 μg per larva, no dsRNA); “Very little or no toxicity” in data set [2] (Example 4, 50 μg dextran sulfate (±8 kDa) alone); “Very little or no toxicity” in data set [2] (setting [5]); “Very little toxicity” in data set [3]. Moreover, the toxicity to nematodes entry in data set [4] (dextran sulfate alone (data not shown)) is on record as “No toxicity”.

Regarding “dextran sulfate [dextran sulfate (±1400 kDa)]”, in data set [2] (Example 5, dextran sulfate (±1400 kDa) alone, 50 ng to 50 μg per larva), the toxicity to larvae result was “Very little or no toxicity”.

fucoidan: the toxicity to larvae entry in data set [2] (Example 2, fucoidan alone, 50 ng to 50 μg per larva) was “Very little or no toxicity”.

Regarding heparin [reference compound], the toxicity to larvae entry in data set [2] (setting [5]) was “Very little or no toxicity”.

Consider “rps-14 dsRNA: C. elegans target rps-14 double-stranded RNA, SEQ ID NO:6”, for which, in data set [4] (setting [6]), the “number of L3 stage larvae” value was 11%, the “number of L4 stage larvae” value turned out to be 19%, the number of adults came to 63% and the “number of dead larvae” value is 7%.

For the origin of these results see patent US20150004148A1, “METHODS AND COMPOSITIONS FOR INCREASING RNA INTERFERENCE” (DEVGEN N.V., priority 2008, published 2015).
